Patent US20060063717A1, “Novel inhibitor of beta amyloid cleavage” (Pfizer Inc, priority 2001, published 2006)
*1 amine or outer side, *2 acyl side, *3 side chain or, on linkers, in order; H or OH if unused. Where a SMILES comes first, the peptide text is derived from it. [ ]: non-standard residue; d: D form. X1 = CC(C)(O)[C@H](C[C@H](O)[C@H](CC1CCCCC1)N[*:1])C(=O)[*:2]

Target: β-Secretase (Homo sapiens, UniProt P56817)
Conditions: in-vitro ELISA; βAP produced in presence of β-Secretase and APP versus control without inhibitor
Excerpt: Such assays, which are well known in the art, measure the concentration of βAP produced (by detection of an antibody against the amino terminus of βAP) in the presence of β-Secretase and APP versus control experiments in the absence of inhibitor.

β-Secretase, sequence (P56817 46-501): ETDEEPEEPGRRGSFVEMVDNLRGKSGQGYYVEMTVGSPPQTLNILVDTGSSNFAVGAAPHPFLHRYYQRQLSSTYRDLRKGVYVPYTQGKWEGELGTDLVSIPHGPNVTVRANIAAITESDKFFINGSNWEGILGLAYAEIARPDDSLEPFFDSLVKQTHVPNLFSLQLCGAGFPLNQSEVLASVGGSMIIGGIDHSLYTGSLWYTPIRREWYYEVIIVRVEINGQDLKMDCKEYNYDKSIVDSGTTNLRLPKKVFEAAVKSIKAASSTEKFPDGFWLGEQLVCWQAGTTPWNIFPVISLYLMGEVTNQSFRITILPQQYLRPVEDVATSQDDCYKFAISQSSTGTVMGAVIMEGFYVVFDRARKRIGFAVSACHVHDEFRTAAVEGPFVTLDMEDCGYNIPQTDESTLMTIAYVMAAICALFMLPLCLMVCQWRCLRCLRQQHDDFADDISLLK

`CC(C)[C@H](NC(=O)[C@@H](N)CCC(=O)O)C(=O)N[C@@H](CC(N)=O)C(=O)N[C@@H](CC1CCCCC1)[C@@H](O)C[C@H](C(=O)N[C@H](C)C(=O)N[C@H](CCC(=O)O)C(=O)N[C@H](Cc1ccccc1)C(=O)O)C(C)(C)O` [compound of formula I] (H-EVN[X1][dA][dE][dF]-OH) gave an IC50 of 49 nM.
